Source: PubChem BioAssay (NCI)
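Cultured in 96-well plates, cells were exposed to test compound for 48 hours across five concentrations. The concentration for full growth arrest is given as TGI.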

Tests used:
Assay in all cases: NCI tumour cell line growth inhibition, 48 h
[1] = test system: HOP-62 NSCLC
[2] = test system: SK-MEL-5 melanoma
[3] = test system: PC-3 prostate
[4] = test system: A549 NSCLC
[5] = test system: DU-145 prostate
[6] = test system: RXF 393 renal
[7] = test system: NCI-H522 lung
[8] = test system: CCRF-CEM leukemia
[9] = test system: TK-10 renal
[10] = test system: K-562 leukemia
[11] = test system: UACC-62 melanoma
[12] = test system: SF-268 CNS
[13] = test system: NCI-H460 lung
[14] = test system: HS 578T breast
[15] = test system: NCI/ADR-RES ovarian
[16] = test system: SK-MEL-28 melanoma
[17] = test system: T-47D breast
[18] = test system: SR leukemia
[19] = test system: SK-MEL-2 melanoma
[20] = test system: OVCAR-4 ovarian
[21] = test system: MCF7 breast
[22] = test system: LOX IMVI melanoma
[23] = test system: MDA-MB-231 breast
[24] = test system: HCT-116 colon
[25] = test system: NCI-H23 lung
[26] = test system: RPMI-8226 leukemia
[27] = test system: M14 melanoma
[28] = test system: HCC-2998 colon
[29] = test system: HT29 colon
[30] = test system: UACC-257 melanoma
[31] = test system: OVCAR-5 ovarian
[32] = test system: U251 CNS
[33] = test system: IGROV1 ovarian
[34] = test system: SN12C renal
[35] = test system: COLO 205 colon
[36] = test system: 786-0 renal
[37] = test system: HL-60(TB) leukemia
[38] = test system: UO-31 renal
[39] = test system: MDA-N
[40] = test system: EKVX NSCLC
[41] = test system: CAKI-1 renal
[42] = test system: A498 renal
[43] = test system: MOLT-4 leukemia
[44] = test system: HOP-92 NSCLC
[45] = test system: BT-549 breast
[46] = test system: HCT-15 colon
[47] = test system: KM12 colon
[48] = test system: ACHN renal
[49] = test system: OVCAR-3 ovarian
[50] = test system: MDA-MB-435
[51] = test system: SNB-75 CNS
[52] = test system: SF-539 CNS
[53] = test system: OVCAR-8 ovarian
[54] = test system: SF-295 CNS
[55] = test system: MALME-3M melanoma
[56] = test system: SNB-19 CNS
[57] = test system: SW-620 colon
[58] = test system: SK-OV-3 ovarian
[59] = test system: NCI-H226 lung

Measured: TGI

CC1=NN(C(=O)CC(=O)Nc2ccccc2)C(=O)C1N=Nc1ccc(C(=O)O)cc1 (configuration not stated)
87.1 µM: [44]
not listed: [58] | [59]
> 100 µM: all other assays above

Nc1ccc(I)cn1
not listed: [9] | [30] | [44] | [52]
> 100 µM: all other assays above
